As usually defined, the IC50 is the concentration that inhibits the measured activity by half. Low values mean greater potency in that assay, high ones weaker potency in that assay.

Assay [1] relates to metabotropic glutamate receptors. Description: Displacement of 1S,3R-ACPD-sensitive [3H]glutamate binding to rat brain cell membranes. To be noted: crude membranes of rat forebrain.
Assay [2] shares this test system. The assay is described as above. To be noted: crude membranes of rat forebrain; inhibition of [3H]glutamate binding. The method, then: The binding of [^3H]glutamate was conducted with crude membranes of rat forebrain as described by Schoepp and True. Schoepp and True, Neuroscience Lett., 145, 100-104 (1992) and True and Schoepp, Society for Neuroscience Abstracts, 19, 470 (1993). IC50 values for the inhibition of [^3H]glutamate binding, or the percent displacement of [^3H]glutamate binding at a 10 µM concentration, of the formula I compound, is shown in Table II.

For assay [3], the system named is Rats. Put plainly: Conditioned active avoidance model. The assay is classed as in vivo. From the text: This model was developed in the early 50s and 60s (Pfeiffer & Jenney, Ann. N.Y. Acad. Sci., 66:[…], 1957; Maffii, J. Pharm. Pharmacol., 11: 129-139, 1959; Cook & Weidley, Ann; N.Y. Acad. Sci., 66: […], 1957; Janke, Handbook of Experimental Pharmacology, Vol. 55/I, New York: Plenum Press, 1978) and is still the primary model used to screen compounds for antipsychotic efficacy.
Rats were individually placed in a sound attenuated, two compartment test chamber. Active avoidance testing consisted of 20 trials each day. On each trial a light (130 v.) and a sound (85 dbA) were delivered simultaneously and 5 seconds later a 5 mA shock was delivered to the floor of the chamber. After 5 seconds the footshock, the light, and the sound were terminated. The animals learned to move from one side of the chamber to the other side when the light and sound cues were presented to avoid shock (avoidance responding) or the rat moved when the shock was administered (escape). Data were tabulated as mean percent escape or mean percent to avoidance for each test day. Prior to drug testing all animals were trained to successfully avoid shock delivery on 90% of trials.
This profile on conditioned avoidance is indicative of antipsychotic efficacy.

[4] abbreviates: 0, 1, 3, 10 and 30mg/kg, i.p. 20 minutes prior to testing.

SMILES strings stand for the structures.

Turning to `NC(CC(Cc1ccccc1)Cc1ccccc1)(C(=O)O)[C@H]1C[C@@H]1C(=O)O` (mixture of isomers) [Example 51, 2SR- and 2RS-2-amino-2-(1SR,2SR-2-carboxycyclopropan-1-yl)-4-benzyl-5-phenylpentanoic acid], the “ACPD-Sensitive [^3H]Glutamate Binding % Displacement @ 1 µM” value in assay [1] (1 µM compound) is reported as “(15% @ 1 µM)”.
For the compound `NC(CCc1cccc(F)c1)(C(=O)O)[C@H]1C[C@@H]1C(=O)O` (mixture of isomers) [Example 81, 2SR- and 2RS-2-amino-2-(1SR,2SR-2-carboxycyclopropan-1-yl)-4-(3-fluorophenyl)butanoic acid], the “ACPD-Sensitive [^3H]Glutamate Binding % Displacement @ 0.1 µM” value in assay [1] (0.1 µM compound) is on record as “(57% @ 0.1 µM)”.
In assay [2], `Cc1cccc(CCC(N)(C(=O)O)C2CC2C(=O)O)c1` [Example 70, 2S-2-amino-2-(1R,2R,2-carboxycyclopropan-1-yl)-4-(3-methylphenyl)butanoic acid] registered an IC50 of 8100 nM.
In assay [2], `N[C@@](CC1c2ccccc2Oc2ccccc21)(C(=O)O)[C@H]1C[C@@H]1C(=O)O` [Example 71, 2R-2 amino-2-(1S,2S-2-carboxycyclopropan-1-yl)-3-(dibenzopyran-4-yl)propanoic acid] gave an IC50 of 530 nM.
On to `N[C@](CC1c2ccccc2Oc2ccccc21)(C(=O)O)[C@H]1C[C@@H]1C(=O)O` [Example 72], for which, in assay [3] (setting [4]), the avoidance responding result was “dose related decrease in avoidance responding” and the escape responding entry is given as “not affecting escape responding”. Besides, in assay [3] (summary statement), the “activity in the conditioned active avoidance model” value is on record as “active”. The half-maximal inhibitory concentration (IC50) in assay [2] amounted to 14 nM.
On to `N[C@](Cc1cccc2c1Oc1ccccc1C2)(C(=O)O)[C@@H]1C[C@H]1C(=O)O` [Example 73, 2S-2 amino-2-(1R,2R-2-carboxycyclopropan-1-yl)-3-(dibenzopyran-4-yl)propanoic acid], for which the IC50 in assay [2] was found to be 860 nM.
